{"source": "patent US9765115B2", "about": "“Inhibitors of metastasis, methods of generating such inhibitors and their therapeutic applications” (Board of Supervisors of Louisiana State University acting …, priority 2011, dated 2017)", "type_in_all_cases": "cell-based", "key": {"[1]": {"test_system": "PC-3CTRΔESS cells", "test": "Paracellular permeability (PCP), TRITC-dextran diffusion", "protocol": "(§1) For PCP measurements, cells were grown to confluence on Transwell filters. Tetra methyl rhodamine-dextran (1 mg/ml, ˜4 kDa, Sigma) was added to the upper chamber. Fluorescence of the lower chamber medium was measured in Modulus Microplate Reader (Turner Biosystems) at various time intervals.\n(§2) TJs form a barrier that regulates the movement of ions, solutes and growth factors between cells. To detect whether CT affects the barrier, the diffusion of fluorophore-conjugated dextran was measured across polarized PC cell line monolayers, a procedure called paracellular permeability (PCP). FIG. 2B depicts CTR-C PDZ-binding motif mutation and tight junction (TJ) disruption as measured using PCP. Polarized PC-3V, PC-3-CTRwt and PC-3CTRΔESS cells were treated with or without 50 nM CT, and PCP determined by diffusion of ˜4 kDa TRITC-conjugated dextran from the upper to the lower chamber in one hour. The results are expressed as μg/ml/hour of TRITC-Dextran diffused ±SEM (n=6; *p<0.05 (−CT v +CT, One way ANOVA and Newman-Keul's test)). […] In contrast, CTRΔESS expression had little effect on PCP in the presence or absence of CT."}, "[2]": {"test_system": "PC-3V cells", "test": "Paracellular permeability (PCP), TRITC-dextran diffusion", "conditions": "50 nM CT", "protocol": "as §1, §2"}, "[3]": {"molecular_target": "T1, CTR-ZO-1 interaction (Homo sapiens, UniProt P30988)", "T1 construct": "PCR generated full length CTRwt and CTRΔESS cDNAs were cloned directionally into pcDNA3.1 mammalian expression vector; FLAG (N); expressed in transfected cells; host or cells: PC-31 / PC-3 cells stably expressing FLAG-CTRwt; ZO-1 is the cells' own", "T1 sequence (P30988 25-474)": "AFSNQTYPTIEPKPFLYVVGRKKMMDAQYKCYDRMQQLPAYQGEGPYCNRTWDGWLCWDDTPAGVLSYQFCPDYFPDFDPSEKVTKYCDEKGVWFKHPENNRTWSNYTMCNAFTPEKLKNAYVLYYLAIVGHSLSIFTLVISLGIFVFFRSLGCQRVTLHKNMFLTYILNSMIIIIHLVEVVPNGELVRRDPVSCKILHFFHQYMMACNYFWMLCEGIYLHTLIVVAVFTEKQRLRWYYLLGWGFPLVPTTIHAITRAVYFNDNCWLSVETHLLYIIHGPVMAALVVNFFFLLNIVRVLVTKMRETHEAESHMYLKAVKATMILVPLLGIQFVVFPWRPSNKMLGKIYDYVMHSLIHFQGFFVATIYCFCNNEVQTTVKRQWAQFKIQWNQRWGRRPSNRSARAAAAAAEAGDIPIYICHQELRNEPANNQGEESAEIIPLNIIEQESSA", "test": "In situ proximity ligation assay (PLA)", "conditions": "PC-3CTRwt cells", "protocol": "(§3) Fixed PC cells or tissues were immunolabeled with primary antibodies (anti-rabbit ZO-1 serum and anti-goat CTR serum) for overnight at 4° C. The secondary antibodies with attached PLA probes were supplied in the Duolink™ kit (Olink Bioscience, Uppsala, Sweden). CTR-ZO-1 interaction was observed by confocal microscopy at 400×. A red fluorescent dot indicated the two proteins are within 35 nm distance. The number of dots per cell was determined by Blobfinder™ image analysis software (Allalou et al., 2009).\n(§4) Next, CTR-ZO-1 interaction was examined in PC-3CTRwt cells. […] Each dot represents an interaction between activated CTR and ZO-1, detected by in situ PLA™ using the Duolink® kit. Nuclei were stained with DAPI. The graph presents quantitative data of CTR-ZO-1 interactions in three separate but identical experiments (mean±SEM; n=6, p<0.001, paired t-test). […] Next, this phenomenon was examined in LNCaP cells, which are androgen-responsive and endogenously express CTR but not CT (Karpova et al., 2006). […] Finally, non-metastatic and metastatic PC specimens were examined in a similar experiment.\n(§5) Since CTR directly interacts with ZO-1 through PDZ domain, whether CT-induced endocytosis of ZO-1 is caused by CTR-mediated events prior to or subsequent to CTR-ZO-1 interaction was tested. To determine the time course of CTR-ZO-1 interaction, in situ PLA assay was used (FIG. 15D). […] Representative micrographs are shown of CTR-ZO-1 interactions in PC-3CTRwt cells at various time periods (0-300 seconds) after CT stimulus. Each highlighted dot represents an interaction between activated CTR and ZO-1, detected by in situ PLA™ using the Duolink® kit. Nuclei were stained with DAPI. The line graph presents the mean±SEM of dots at each time point (n=6). […] Considering that ZO-1 endocytosis was observed after 1 minute of CT stimulus, it is conceivable that CTR-mediated events subsequent to CTR-ZO-1 interaction may be associated with TJ protein endocytosis."}, "[4]": {"molecular_target": "T2, CTR-ZO-1 interaction (Homo sapiens, UniProt P30988, E471A/S472A/S473A)", "T2 construct": "PCR generated full length CTRwt and CTRΔESS cDNAs were cloned directionally into pcDNA3.1 mammalian expression vector; FLAG (N); expressed in transfected cells; host or cells: PC-31 / PC-3 cells stably expressing FLAG-CTRwt; ZO-1 is the cells' own", "T2 sequence (P30988 with tags, fused parts or gaps)": "T1 sequence (P30988 25-474) with E447A, S448A, S449A", "test": "In situ proximity ligation assay (PLA)", "conditions": "PC-3CTRΔESS cells, with or without CT", "protocol": "as §3, §4, §5"}}, "note": "Changes are numbered by the printed parent chain.", "data": [{"substance": "calcitonin [CT]", "values": [{"measurement": "PCP at multiple CT concentrations", "setting": "[1]; all tested concentrations", "value": "did not alter PCP"}, {"measurement": "PCP", "setting": "[1]; presence or absence of 50 nM CT", "value": "little effect"}, {"measurement": "PCP", "setting": "[2]", "value": "did not alter it"}, {"measurement": "time of peak CTR-ZO-1 interaction after CT stimulus", "setting": "[3]", "value": 30, "unit": "s"}, {"measurement": "CTR-ZO-1 interactions (PLA dots)", "setting": "[3]; 50 nM CT, 30 seconds", "value": "eighty-fold increase"}, {"measurement": "CTR-ZO-1 interactions (PLA dots)", "setting": "[4]", "value": "no CTR-ZO-1 interactions were observed"}]}]}
